{"source": "patent US7368424B2", "about": "“Acylated nonadepsipeptides” (AiCuris GmbH & Co. KG, priority 2003, dated 2008)", "key": {"[1]": {"tested_on": "Streptococcus pneumoniae G9a", "type": "cell-based"}, "[2]": {"tested_on": "Staphylococcus aureus 133", "type": "cell-based"}, "E. faecium L4001": {"tested_on": "E. faecium L4001", "type": "cell-based, Enterococcus faecium"}, "E. faecalis ICB 27159": {"tested_on": "E. faecalis ICB 27159", "type": "cell-based, Enterococcus faecalis"}, "[3]": {"details": "BHI broth with 10% bovine serum, 10^6 microbes per ml, 10% CO2, 37° C., 18-24 hours"}, "[4]": {"details": "Isosensitest medium, 10^5 microbes per ml, 37° C., 18-24 hours"}}, "note": "Where two headings read alike, the source gives them in different places. *1 amine or outer side, *2 acyl side, *3 side chain or, on linkers, in order; H or OH if unused. Where a SMILES comes first, the peptide text is derived from it. Bridges are numbered along the chain shown (N, C = ends). [ ]: non-standard residue; d: D form. The star is where a group is joined. ξ: configuration not given here. Phe(3R-OH) = O=C([C@@H](N[*:1])[C@H](O[*:3])c1ccccc1)[*:2]; Asn(3S-OH) = NC(=O)[C@@H](O)[C@H](N)C(=O)O; Leu(3R-OH) = CC(C)[C@@H](O)[C@H](N)C(=O)O; d(tBuAla) = CC(C)(C)C[C@@H](N)C(=O)O; tBuAla = CC(C)(C)C[C@H](N)C(=O)O; aThr = C[C@H](O)[C@H](N)C(=O)O; ξIle = CC[C@H](C)C(N)C(=O)O; Ac6c = NC1(C(=O)O)CCCCC1; Cbz = O=C(OCc1ccccc1)*; OtBu = CC(C)(C)O*", "data": [{"smiles": "CC[C@H](C)C1NC(=O)[C@@H](CCCNC(=N)N)NC(=O)[C@H](CC(C)C)NC(=O)[C@H]([C@H](O)C(C)C)NC(=O)[C@@H](NC(=O)[C@H](CC(=O)OC(C)(C)C)NC(=O)[C@H](N)CC(C)(C)C)[C@@H](c2ccccc2)OC(=O)[C@H](CO)NC(=O)[C@H]([C@H](O)C(N)=O)NC(=O)CNC(=O)[C@H]([C@H](C)O)NC1=O.O=C(O)C(F)(F)F.O=C(O)C(F)(F)F", "note": "(stereo partly drawn) [Example 101, (2S)-2-[(3-tert-Butyl-D-alanyl)amino]-4-tert-butoxy-4-oxobutanoyl-de(1-D-leucyl-2-L-leucyl)lysobactin bistri-fluoroacetate] (H-[d(tBuAla)]D(OtBu)[Phe(3R-OH)][Leu(3R-OH)]L[dR][ξIle][aThr]G[Asn(3S-OH)]S; ester 3-C)", "values": [{"measurement": "MIC S. pneumoniae", "setting": "[1]; [3]", "result": 0.5, "unit": "µg/mL"}, {"measurement": "MIC S. aureus 133", "setting": "[2]; [4]", "result": 1, "unit": "µg/mL"}, {"measurement": "MIC E. faecium L4001", "setting": "E. faecium L4001; [4]", "result": 1, "unit": "µg/mL"}, {"measurement": "MIC E. faecalis ICB 27159", "setting": "E. faecalis ICB 27159; [4]", "result": 1, "unit": "µg/mL"}]}, {"smiles": "CC[C@H](C)C1NC(=O)[C@@H](CCCNC(=N)N)NC(=O)[C@H](CC(C)C)NC(=O)[C@H]([C@H](O)C(C)C)NC(=O)[C@@H](NC(=O)[C@H](CC(C)(C)C)NC(=O)C2(N)CCCCC2)[C@@H](c2ccccc2)OC(=O)[C@H](CO)NC(=O)[C@H]([C@H](O)C(N)=O)NC(=O)CNC(=O)[C@H]([C@H](C)O)NC1=O.O=C(O)C(F)(F)F.O=C(O)C(F)(F)F", "note": "(stereo partly drawn) [Example 105, N-[(1-Aminocyclohexyl)carbonyl]-(3-tert-butyl-D-alanyl)-de(1-D-leucyl-2-L-leucyl)lysobactin bistri-fluoroacetate] (H-[Ac6c][tBuAla][Phe(3R-OH)][Leu(3R-OH)]L[dR][ξIle][aThr]G[Asn(3S-OH)]S; ester 3-C)", "values": [{"measurement": "MIC S. pneumoniae", "setting": "[1]; [3]", "result": 0.063, "unit": "µg/mL"}, {"measurement": "MIC S. aureus 133", "setting": "[2]; [4]", "result": 0.5, "unit": "µg/mL"}, {"measurement": "MIC E. faecium L4001", "setting": "E. faecium L4001; [4]", "result": 0.5, "unit": "µg/mL"}, {"measurement": "MIC E. faecalis ICB 27159", "setting": "E. faecalis ICB 27159; [4]", "result": 1, "unit": "µg/mL"}]}, {"smiles": "CC[C@H](C)C1NC(=O)[C@@H](CCCNC(=N)N)NC(=O)[C@H](CC(C)C)NC(=O)[C@H]([C@H](O)C(C)C)NC(=O)[C@@H](NC(=O)[C@H](CCCCNC(=O)OCc2ccccc2)NC(=O)[C@H](N)CC(C)(C)C)[C@@H](c2ccccc2)OC(=O)[C@H](CO)NC(=O)[C@H]([C@H](O)C(N)=O)NC(=O)CNC(=O)[C@H]([C@H](C)O)NC1=O.O=C(O)C(F)(F)F.O=C(O)C(F)(F)F", "note": "(stereo partly drawn) [Example 107, {(3-tert-Butylalanyl)-[N^6-(benzyloxycarbonyl)lysyl]}-de(1-D-leucyl-2-L-leucyl)lysobactin bistrifluoroacetate] (H-[d(tBuAla)]K(Cbz)[Phe(3R-OH)][Leu(3R-OH)]L[dR][ξIle][aThr]G[Asn(3S-OH)]S; ester 3-C)", "values": [{"measurement": "MIC S. pneumoniae", "setting": "[1]; G9a", "result": 0.25, "unit": "µg/mL"}, {"measurement": "MIC S. aureus 133", "setting": "[2]; 133", "result": 0.25, "unit": "µg/mL"}, {"measurement": "MIC E. faecium L4001", "setting": "E. faecium L4001; L4001", "result": 0.5, "unit": "µg/mL"}, {"measurement": "MIC E. faecalis ICB 27159", "setting": "E. faecalis ICB 27159; ICB 27159", "result": 1, "unit": "µg/mL"}]}]}
